Source: EPA's ToxRefDB 2

Tests used:
rabbit = settings: Prenatal developmental toxicity study, new zealand white, Oral, Gavage/Intubation, dose end: 19 GD
mouse = settings: Combined chronic toxicity/carcinogenicity, cd1, Oral, Feed, dose end: 2 year, group: systemic
rat [1] = settings: Prenatal developmental toxicity study, wistar, Oral, Gavage/Intubation, dose end: 15 GD
dog = settings: Chronic toxicity; beagle; Oral; Capsule; dose end: 52 week; group: systemic; systemic / clinical chemistry / alkaline phosphatase (alp/alk) / alkaline phosphatase (alp/alk) + systemic / clinical chemistry / …
rat [2] = settings: Subchronic oral toxicity in rodents, wistar, [Not Specified], dose end: 90 day, group: systemic
rat [3] = settings: Combined chronic toxicity/carcinogenicity, sprague dawley, Oral, Feed, dose end: 2 year, group: systemic
rat [4] = settings: Multigenerational reproductive toxicity study, wistar, Oral, Feed, dose end: 2 generation
[5] = group: developmental, developmental / developmental malformation / bone / short supernumerary + developmental / developmental malformation / bone / full …
[6] = group: maternal, systemic / in life observation / body weight / body weight + systemic / in life observation / body weight / body weight gain + systemic / in…
[7] = group: developmental, developmental / developmental malformation / mouth / jaw / cleft palate
[8] = group: maternal, systemic / in life observation / body weight / body weight gain
[9] = group: maternal, systemic / in life observation / body weight / body weight gain + systemic / in life observation / clinical signs / urogenital staining + …
[10] = systemic / clinical chemistry / aminopyrine-n-demethylase / aminopyrine-n-demethylase + systemic / organ weight / liver / absolute + …
[11] = systemic / urinalysis / volume / volume
[12] = systemic / pathology microscopic / liver / hypertrophy
[13] = group: offspring, systemic / in life observation / clinical signs / red or crusty deposits around eyes, ears, nose, or mouth + systemic / pathology gross / …
[14] = group: parental, systemic / in life observation / body weight / body weight gain + systemic / in life observation / food consumption / food consumption + …

`CC(C)(C)[C@H](O)[C@H](Cc1ccc(Cl)cc1)n1cncn1` [Paclobutrazol] showed an LEL (rabbit; [5]) of 125 mg/kg/day, an LOAEL (rabbit; [5]) of 125 mg/kg/day and an NEL (rabbit; [5]) of 75 mg/kg/day. The NOAEL (rabbit; [5]) was 75 mg/kg/day, the LEL (rabbit; [6]) was 125 mg/kg/day and the LOAEL (rabbit; [6]) was 125 mg/kg/day. It also gave an NEL (rabbit; [6]) of 75 mg/kg/day, an NOAEL (rabbit; [6]) of 75 mg/kg/day and an LEL (mouse; systemic / organ weight / kidney / relative to body weight) of 18.8 mg/kg/day. It also gave an NEL (mouse; systemic / organ weight / kidney / relative to body weight + systemic / organ weight / kidney / absolute + systemic / organ weight / liver…) of 3.75 mg/kg/day, an LOAEL (mouse; systemic / pathology microscopic / liver / steatosis) of 112 mg/kg/day and an NOAEL (mouse; systemic / pathology microscopic / liver / steatosis + systemic / organ weight / liver / absolute + systemic / organ weight / liver / …) of 18.8 mg/kg/day. The LOAEL (rat [1]; group: developmental, developmental / developmental malformation / bone / incomplete ossification + developmental / developmental malformation / bone / unossified) was 100 mg/kg/day, the NOAEL (rat [1]; group: developmental, developmental / developmental malformation / bone / incomplete ossification + developmental / developmental malformation / bone / unossified…) was 40 mg/kg/day and the LEL (rat [1]; [7]) was 40 mg/kg/day. It also gave an NEL (rat [1]; [7]) of under 40 mg/kg/day, an LEL (rat [1]; [8]) of 100 mg/kg/day and an LOAEL (rat [1]; [8]) of 100 mg/kg/day. It also gave an NEL (rat [1]; [9]) of 40 mg/kg/day, an NOAEL (rat [1]; [9]) of 40 mg/kg/day and an LEL (dog) of 75 mg/kg/day. For the same compound, the LOAEL (dog) was 75 mg/kg/day, the NEL (dog) was 15 mg/kg/day and the NOAEL (dog) was 15 mg/kg/day. The LOAEL (rat [2]; [10]) was 62.5 mg/kg/day, the NOAEL (rat [2]; [10]) was 12.5 mg/kg/day and the LEL (rat [2]; [11]) was 2.5 mg/kg/day. For the same compound, the NEL (rat [2]; [11]) was under 2.5 mg/kg/day, the LEL (rat [3]; systemic / clinical chemistry / triglycerides / triglycerides) was 12.5 mg/kg/day and the LOAEL (rat [3]; [12]) was 62.5 mg/kg/day. For the same compound, the NOAEL (rat [3]; [12]) was 12.5 mg/kg/day, the NEL (rat [3]; systemic / pathology microscopic / liver / hypertrophy + systemic / clinical chemistry / triglycerides / triglycerides + systemic / …) was 2.5 mg/kg/day and the LEL (rat [4]; [13]) was 12.5 mg/kg/day. For the same compound, the LOAEL (rat [4]; [13]) was 12.5 mg/kg/day, the NEL (rat [4]; [13]) was 2.5 mg/kg/day and the NOAEL (rat [4]; [13]) was 2.5 mg/kg/day. It also gave an NEL (rat [4]; group: parental, systemic / in life observation / body weight / body weight + systemic / in life observation / body weight / body weight gain + systemic / in…) of 2.5 mg/kg/day, an LOAEL (rat [4]; [14]) of over 62.5 mg/kg/day and an NOAEL (rat [4]; [14]) of at least 62.5 mg/kg/day. The LEL (rat [4]; group: parental, systemic / in life observation / clinical signs / red or crusty deposits around eyes, ears, nose, or mouth + systemic / pathology gross / …) was 12.5 mg/kg/day.
